Measurements reported in EP1166644A1, “Enzymatic biodegradation of halogenated compounds” (priority 2000, dated 2002).

Tested on: baker's yeast
Assay: Bioconversion (biodegradation) assay with baker's yeast
Format: cell-based, Saccharomyces caerevisae (baker's yeast)
Protocol: Biodegradation assays were carried out according to the following steps: • Step 1. Culture of microorganisms: The microorganisms studied were allowed to grow on a defined medium, in order to increase biomass and develop possible enzymatic activity. • Step 2. Bioconversion assay: The desired amount of 3-MCPD was added to the reactor, and samples were withdrawn at different reaction time to follow the kinetics of biodegradation. • Step 3. Centrifugation: Samples withdrawn from the mixture were centrifuged, the pellet was discarded and the supernatant was used for further treatment and analysis. • Step 4. Extraction of 3-MCPD: 3-MCPD was extracted from the supernatant using Extrelut columns or the Accelerated Solvent Extractor method, and partitioned into ethyl acetate. • Step 5. Preparation of samples for analysis: The organic phase was concentrated with a rotary evaporator, and transferred to a vial, containing an internal standard (3-monochloro-1-propanol (3-MCP) or 3-MCPD-d5). • Step 6. Analysis: Final detection and monitoring of substrate was accomplished by gas chromatography techniques (GC or GC-MS).
Conditioning of baker's yeast: 60g active dry baker's yeast was added to 300 g distilled water under magnetic stirring for 20 min at room temperature. The yeast cream was then centrifuged at 5000 rpm for 15 min, at 4°C (Beckman Model J2-21M Centrifuge) and supernatant was discarded. The pellet was resuspended in equivalent amount (225ml) of distilled water. The obtained yeast cream solution (pH 5.8) was then used for bioconversion assays.
Bioconversion assay: 150 g of the yeast cream solution obtained as described above was placed in a 200 ml reactor vessel equipped with an electrode and a magnetic stirrer (500 rpm). The flask was kept at 28°C using an oil bath equipped with a thermostat (Heidolph MR 3003), and pH was adjusted to the desired pH condition (pH 6.2, pH 7.0, or pH 8.2) with 2M NaOH solution.
[…] The pH was automatically maintained throughout the reaction with regular adjunction of 2M NaOH (Metrohm 691 pH-Meter, equipped with Metrohm Impulsomat 614 and Dosimat 665).
Aliquots of 6 ml were withdrawn from the reaction mixture at different incubation times and centrifuged at 3000 rpm, during 4 min, at 25°C (Beckman Model TJ6 Centrifuge). The pellet was discarded, and the supernatant absorbed onto an Extrelut 3 column or hydromatrix column (placed in the Accelerated Solvent Extractor). 3-MCPD was then partitioned into ethyl acetate, volume was reduced to 2 ml by rotary evaporation, and transferred to a 10 ml graduated tube. 1ml of the internal standard (3-MCP or 3-MCPD-d5) was added to the vial and made up to volume with ethyl acetate. Finally, the extract was dried over anhydrous sodium sulfate, and analyzed for 3-MCPD content by gas chromatography (GC or GC-MS).
The study of 3-MCPD biodegradation by baker's yeast was made by varying different parameters and measuring their influence on the yield and rate of 3-MCPD degradation. The effect of the following parameters were studied: • pH 6.2, 7.0 and 8.2 • presence of glucose in the reaction mixture • substrate stereospecificity: (R)-and (S)-enantiomers • substrate concentration: 800 ppb and 3000 ppm
The results of the biodegradation assays are reported as a percentage of conversion of 3-MCPD as function of reaction time.
Final conversion values were referred to 48h reaction time in order to compare the different biodegradation assays performed. Comparison of bioconversions after 48 h reaction time has been chosen in respect of the enzymatic nature of the reaction studied (many non-enzymatic reactions could occur in a longer time frame).
A control vial (reaction medium with substrate, but without microorganism) was run alongside the reaction. This control permitted the subtraction of the non-enzymatic conversion of 3-MCPD under the experimental conditions tested. […]

[1] = 800 ppb, pH 8.2, 28°C, without glucose
[2] = 3000 ppm, pH 6.2, 28°C, without glucose
[3] = 3000 ppm, pH 7.0, 28°C, without glucose
[4] = 3000 ppm, pH 8.2, 28°C, without glucose

Structure (SMILES) | Biodegradation of 3-MCPD with baker's yeast, After 24 h [1] | Biodegradation of 3-MCPD with baker's yeast, After 24 h (800 ppb, pH 8.2, 28°C, without glucose, listed as racemic 3-MCPD) | Biodegradation of 3-MCPD with baker's yeast, After 48 h [1] | highest conversion (2000 ppm, pH 8.2, in the presence of glucose, after 24h reaction) | Biodegradation of 3-MCPD with baker's yeast, After 24 h [2] | Biodegradation of 3-MCPD with baker's yeast, After 48 h [2] | Biodegradation of 3-MCPD with baker's yeast, After 24 h [3] | Biodegradation of 3-MCPD with baker's yeast, After 48 h [3] | Biodegradation of 3-MCPD with baker's yeast, After 24 h [4] | Biodegradation of 3-MCPD with baker's yeast, After 48 h [4] | Biodegradation of 3-MCPD with baker's yeast, After 48 h (3000 ppm, pH 8.2, 28°C, without glucose, listed as 3-MCPD) | Biodegradation of 3-MCPD with baker's yeast, After 48 h (3000 ppm, pH 8.2, 28°C, without glucose, listed as racemic 3-MCPD) | Biodegradation of 3-MCPD with baker's yeast, After 24 h (3000 ppm, pH 8.2, + glucose) | Biodegradation of 3-MCPD with baker's yeast, After 48 h (3000 ppm, pH 8.2, + glucose)
OCC(O)CCl (racemic) [(R,S)-3-MCPD, 3-Monochloro-1,2-propanediol] | 50% | about 50% | 70% | 60% | 8% | 12% | 20% | 35% | 26% | 45% | 45% | about 50% | 60% | 68%
OC[C@@H](O)CCl [(R)-3-MCPD, (R)-(-)-3-monochloro-1,2-propanediol] |  |  |  |  |  |  |  |  | 20% | 60% |  |  |  | 
OC[C@H](O)CCl [(S)-3-MCPD, (S)-(+)-3-monochloro-1,2-propanediol] |  |  |  |  |  |  |  |  | 55% | 85% |  |  |  | 
